Measurements: patent US20240025906A1 (NEURON23, INC., priority 2022, published 2024)
Like-named read-outs stand apart in the source and are kept apart here.

Experiments:
TYK2 JH2 = target: T1, TYK2 JH2 (Homo sapiens, UniProt P29597); test: TYK2 JH2 binding assay (KINOMEscan KdELECT competitive binding); conditions: TYK2 JH2 domain
T1 construct: purchased DiscoverX (KINOMEscan KdELECT service); host or cells: E. coli BL21-derived (T7 phage display) or HEK-293
Outline: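 The assay measures displacement of DNA- or phage-tagged TYK2 pseudokinase domain from an affinity resin; compound binding lowers the amount captured, read by qPCR. Incubation lasts 1 h at room temperature.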

[1] = tested on: JAK1/TYK2 pSTAT5 (Tyr694/699) in THP-1 cell line; test: IFNa-stimulated JAK1/TYK2 pSTAT5 (Tyr694/699) inhibition cellular assay, AlphaLISA; assay type: cell-based; conditions: Homo sapiens, THP-1 cells, IFNa-stimulated, AlphaLISA (Assay B)
Outline: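 The readout is AlphaLISA signal at 615 nm for phospho-STAT5 in THP-1 lysates after IFNa stimulation (added at 100 ng/mL, 30 min, 37 °C). Cells had compound for 1 h beforehand across eight 6-fold concentrations up to 10000 nM final. IC50s are 4PL fits with bottom and Hill slope constrained.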

[2] = KINOMEscan KdELECT (Assay A), read-out: Biochemical TYK2_JH2_Kd
[3] = read-out: Cellular THP1_IFNa-pSTATS_IC50
[4] = DiscoverX KINOMEscan KdELECT (Assay A), read-out: Biochemical TYK2_DiscoverX_JH2_BND_Kd
[5] = read-out: Cellular_THP1_IFNa-pSTATS_TYK2

T1 sequence (P29597 589-875 limits assumed): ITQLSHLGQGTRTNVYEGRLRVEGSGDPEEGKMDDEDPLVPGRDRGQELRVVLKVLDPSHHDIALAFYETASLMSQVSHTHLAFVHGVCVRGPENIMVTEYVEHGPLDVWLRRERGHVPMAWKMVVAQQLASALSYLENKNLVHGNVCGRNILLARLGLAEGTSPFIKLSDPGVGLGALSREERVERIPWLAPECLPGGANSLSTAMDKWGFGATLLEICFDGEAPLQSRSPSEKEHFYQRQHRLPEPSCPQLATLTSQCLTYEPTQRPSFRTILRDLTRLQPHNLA

CNc1ncc(-c2ccccc2)c2cc(NC(C)C)ncc12 [Example 162, N^6-isopropyl-N^1-methyl-4-phenyl-2,7-naphthyridine-1,6-diamine]
Kd (TYK2 JH2; [2]): 0.1 to 1 µM
IC50 [1, 3]: > 0.5 µM

CNc1nc(C)cc2cc(NC(=O)C3CC3)ncc12 [Example 163, N-(6-methyl-8-(methylamino)-2,7-naphthyridin-3-yl)cyclopropanecarboxamide]
Kd (TYK2 JH2; [2]): 0.1 to 1 µM
IC50 [1, 3]: > 0.5 µM

C=Cc1cc2cc(NC(=O)C3CC3)ncc2c(NC)n1 [Example 164, N-(8-(methylamino)-6-vinyl-2,7-naphthyridin-3-yl)cyclopropanecarboxamide]
Kd (TYK2 JH2; [2]): 0.1 to 1 µM
IC50 [1, 3]: > 0.5 µM

CCc1cc2cc(NC(=O)C3CC3)ncc2c(NC)n1 [Example 165, N-(6-ethyl-8-(methylamino)-2,7-naphthyridin-3-yl)cyclopropanecarboxamide]
Kd (TYK2 JH2; [2]): ≤ 0.1 µM
IC50 [1, 3]: > 0.5 µM

CNc1ncc(-c2ccc(-n3cccn3)cc2)c2cc(NC(=O)C3CC3)ncc12 [Example 166, N-(5-(4-(1H-pyrazol-1-yl)phenyl)-8-(methylamino)-2,7-naphthyridin-3-yl)cyclopropanecarboxamide]
Kd (TYK2 JH2; [2]): ≤ 0.1 µM
IC50 [1, 3]: > 0.5 µM

CNc1ncc(/C=C/c2cccc(OC)c2)c2cc(NC(=O)C3CC3)ncc12 [Example 167, (E)-N-(5-(3-methoxystyryl)-8-(methylamino)-2,7-naphthyridin-3-yl)cyclopropanecarboxamide]
Kd (TYK2 JH2; [2]): ≤ 0.1 µM
IC50 [1, 3]: ≤ 0.5 µM

CNc1ncc(-c2cccc(COC)c2)c2cc(NC(=O)C3CC3)ncc12 [Example 168, N-(5-(3-(methoxymethyl)phenyl)-8-(methylamino)-2,7-naphthyridin-3-yl)cyclopropanecarboxamide]
Kd (TYK2 JH2; [2]): ≤ 0.1 µM
IC50 [1, 3]: > 0.5 µM

CNc1ncc(-c2ccc(COC)cc2)c2cc(NC(=O)C3CC3)ncc12 [Example 169, N-(5-(4-(methoxymethyl)phenyl)-8-(methylamino)-2,7-naphthyridin-3-yl)cyclopropanecarboxamide]
Kd (TYK2 JH2; [2]): ≤ 0.1 µM
IC50 [1, 3]: > 0.5 µM

CNc1ncc(-c2ccc(C(=O)N(C)C)cc2)c2cc(NC(=O)C3CC3)ncc12 [Example 170, 4-(6-(cyclopropanecarboxamido)-1-(methylamino)-2,7-naphthyridin-4-yl)-N,N-dimethylbenzamide]
Kd (TYK2 JH2; [2]): ≤ 0.1 µM
IC50 [1, 3]: ≤ 0.5 µM

CNc1ncc(-c2ccc(-c3ccccn3)cc2)c2cc(NC(=O)C3CC3)ncc12 [Example 171, N-(8-(methylamino)-5-(4-(pyridin-2-yl)phenyl)-2,7-naphthyridin-3-yl)cyclopropanecarboxamide]
Kd (TYK2 JH2; [2]): ≤ 0.1 µM
IC50 [1, 3]: ≤ 0.5 µM

CNc1ncc(-c2cccc(COCCOC)c2)c2cc(NC(=O)C3CC3)ncc12 [Example 172, N-(5-(3-((2-methoxyethoxy)methyl)phenyl)-8-(methylamino)-2,7-naphthyridin-3-yl)cyclopropanecarboxamide]
Kd (TYK2 JH2; [2]): ≤ 0.1 µM
IC50 [1, 3]: > 0.5 µM

CNc1ncc(-c2ccc(-c3ccnn3C)cc2)c2cc(NC(=O)C3CC3)ncc12 [Example 173, N-(5-(4-(1-methyl-1H-pyrazol-5-yl)phenyl)-8-(methylamino)-2,7-naphthyridin-3-yl)cyclopropanecarboxamide]
Kd (TYK2 JH2; [2]): ≤ 0.1 µM
IC50 [1, 3]: ≤ 0.5 µM

C=C(c1ccccc1OC)c1cnc(NC)c2cnc(NC(=O)C3CC3)cc12 [Example 175]
Kd (TYK2 JH2; [2]): 0.1 to 1 µM
IC50 [1, 3]: > 0.5 µM

CNc1nccc2cc(NC(=O)C3CC3)nnc12 [Example 176, N-(8-(methylamino)pyrido[3,4-c]pyridazin-3-yl)cyclopropanecarboxamide]
Kd (TYK2 JH2; [2]): 0.1 to 1 µM
IC50 [1, 3]: > 0.5 µM

CNc1ncc(Br)c2cc(NC(=O)C3CC3)nnc12 [Example 177, N-(5-bromo-8-(methylamino)pyrido[3,4-c]pyridazin-3-yl)cyclopropanecarboxamide]
Kd (TYK2 JH2; [2]): ≤ 0.1 µM
IC50 [1, 3]: > 0.5 µM

CNc1ncc(-c2ccccc2)c2cc(NC(=O)C3CC3)nnc12 [Example 178, N-(8-(methylamino)-5-phenylpyrido[3,4-c]pyridazin-3-yl)cyclopropanecarboxamide]
Kd (TYK2 JH2; [2]): ≤ 0.1 µM
IC50 [1, 3]: > 0.5 µM

CNc1ncc(-c2nc3ccc(F)cc3o2)c2cc(NC(=O)C3CC3)ncc12 [Example 179, N-(5-(6-fluorobenzo[d]oxazol-2-yl)-8-(methylamino)-2,7-naphthyridin-3-yl)cyclopropanecarboxamide]
Kd (TYK2 JH2; [2]): ≤ 0.1 µM
IC50 [1, 3]: ≤ 0.5 µM

CNc1ncc(-c2nc3c(OC)cccc3o2)c2cc(NC(=O)C3CC3)ncc12 [Example 180, N-(5-(4-methoxybenzo[d]oxazol-2-yl)-8-(methylamino)-2,7-naphthyridin-3-yl)cyclopropanecarboxamide]
Kd (TYK2 JH2; [2]): ≤ 0.1 µM
IC50 [1, 3]: ≤ 0.5 µM

CNc1ncc(-c2nc3cc(F)ccc3o2)c2cc(NC(=O)C3CC3)ncc12 [Example 181, N-(5-(5-fluorobenzo[d]oxazol-2-yl)-8-(methylamino)-2,7-naphthyridin-3-yl)cyclopropanecarboxamide]
Kd (TYK2 JH2; [2]): ≤ 0.1 µM
IC50 [1, 3]: ≤ 0.5 µM

CNc1ncc(-c2nc3c(F)cccc3o2)c2cc(NC(=O)C3CC3)ncc12 [Example 184, N-(5-(4-fluorobenzo[d]oxazol-2-yl)-8-(methylamino)-2,7-naphthyridin-3-yl)cyclopropanecarboxamide]
Kd (TYK2 JH2; [2]): ≤ 0.1 µM
IC50 [1, 3]: ≤ 0.5 µM

CNc1ncc(-c2nc3cc(N4CCC4)ccn3n2)c2cc(NC(=O)C3CC3)ncc12 [Example 188, N-(5-(7-(azetidin-1-yl)-[1,2,4]triazolo[1,5-a]pyridin-2-yl)-8-(methylamino)-2,7-naphthyridin-3-yl)cyclopropanecarboxamide]
Kd (TYK2 JH2; [2]): ≤ 0.1 µM
IC50 [1, 3]: ≤ 0.5 µM

[2H]C([2H])([2H])Oc1ccc2oc(-c3cnc(NC)c4cnc(NC(=O)C5CC5)cc34)nc2c1 [Example 195, N-(5-(5-(methoxy-d3)benzo[d]oxazol-2-yl)-8-(methylamino)-2,7-naphthyridin-3-yl)cyclopropanecarboxamide]
Kd (TYK2 JH2; [4]): ≤ 0.1 µM
IC50 [1, 5]: ≤ 0.5 µM

CNc1ncc(-c2nc3cc(OC4CN(C(=O)OC(C)(C)C)C4)ccc3o2)c2cc(NC(=O)C3CC3)ncc12 [Example 196, tert-butyl 3-((2-(6-(cyclopropanecarboxamido)-1-(methylamino)-2,7-naphthyridin-4-yl)benzo[d]oxazol-5-yl)oxy)azetidine-1-carboxylate]
Kd (TYK2 JH2; [4]): ≤ 0.1 µM
IC50 [1, 5]: ≤ 0.5 µM

CNc1ncc(-c2nc3cc(OC4CNC4)ccc3o2)c2cc(NC(=O)C3CC3)ncc12 [Example 197, N-(5-(5-(azetidin-3-yloxy)benzo[d]oxazol-2-yl)-8-(methylamino)-2,7-naphthyridin-3-yl)cyclopropanecarboxamide]
Kd (TYK2 JH2; [4]): ≤ 0.1 µM
IC50 [1, 5]: ≤ 0.5 µM

CNc1ncc(-c2nc3cc(OC4CN(C)C4)ccc3o2)c2cc(NC(=O)C3CC3)ncc12 [Example 198, N-(8-(methylamino)-5-(5-((1-methylazetidin-3-yl)oxy)benzo[d]oxazol-2-yl)-2,7-naphthyridin-3-yl)cyclopropanecarboxamide]
Kd (TYK2 JH2; [4]): ≤ 0.1 µM
IC50 [1, 5]: ≤ 0.5 µM

CNc1ncc(-c2nc3cc(O[C@H]4C[C@H](OC)C4)ccc3o2)c2cc(NC(=O)C3CC3)ncc12 [Example 199, N-(5-(5-((1r,3r)-3-methoxycyclobutoxy)benzo[d]oxazol-2-yl)-8-(methylamino)-2,7-naphthyridin-3-yl)cyclopropanecarboxamide]
Kd (TYK2 JH2; [4]): ≤ 0.1 µM
IC50 [1, 5]: ≤ 0.5 µM
